Measured values reported in ChEMBL document CHEMBL3046648, “Herbicidally Active N-(1-Arylethenyl)-2-chloroacetamides Bearing an Alkyloxyalkyl Moiety” (1991).
Values joined by “and” are separate entries in the source; they are usually repeats but may differ in a detail not shown here. Identical values can stand only once.

What was measured:
Type in all cases: functional
[1] = test system: Amaranthus blitum subsp. oleraceus; test: Herbicidal activity against Amaranthus blitum subsp. oleraceus assessed as killing at 2.5 g/a at 25 degC measured after 2 weeks
Setaria viridis [2] = test: Herbicidal activity against Setaria viridis (green foxtail) assessed as killing at 2.5 g/a at 25 degC measured after 2 weeks
Digitaria ciliaris [3] = test: Herbicidal activity against Digitaria ciliaris assessed as killing at 2.5 g/a at 25 degC measured after 2 weeks
Poa annua [4] = test: Herbicidal activity against Poa annua assessed as killing at 10 g/a at 25 degC measured after 2 weeks
Cyperus difformis [5] = test: Herbicidal activity against Cyperus difformis assessed as killing at 1 g/a at 25 degC measured after 3 weeks
Echinochloa oryzicola [6] = test: Herbicidal activity against Echinochloa oryzicola assessed as killing at 10 g/a at 25 degC measured after 3 weeks
[7] = test system: Amaranthus blitum subsp. oleraceus; test: Herbicidal activity against Amaranthus blitum subsp. oleraceus assessed as killing at 10 g/a at 25 degC measured after 2 weeks
Digitaria ciliaris [8] = test: Herbicidal activity against Digitaria ciliaris assessed as killing at 10 g/a at 25 degC measured after 2 weeks
Stellaria media [9] = test: Herbicidal activity against Stellaria media assessed as killing at 2.5 g/a at 25 degC measured after 2 weeks
Cyperus difformis [10] = test: Herbicidal activity against Cyperus difformis assessed as killing at 10 g/a at 25 degC measured after 3 weeks
Kummerowia striata [11] = test: Herbicidal activity against Kummerowia striata assessed as killing at 10 g/a at 25 degC measured after 2 weeks
Kummerowia striata [12] = test: Herbicidal activity against Kummerowia striata assessed as killing at 2.5 g/a at 25 degC measured after 2 weeks
Setaria viridis [13] = test: Herbicidal activity against Setaria viridis (green foxtail) assessed as killing at 10 g/a at 25 degC measured after 2 weeks
Pontederia vaginalis [14] = test: Herbicidal activity against Monochoria vaginalis assessed as killing at 10 g/a at 25 degC measured after 3 weeks
Stellaria media [15] = test: Herbicidal activity against Stellaria media assessed as killing at 10 g/a at 25 degC measured after 2 weeks
[16] = Herbicidal activity against annual broad-leaf weeds assessed as killing at 10 g/a at 25 degC measured after 3 weeks
Pontederia vaginalis [17] = test: Herbicidal activity against Monochoria vaginalis assessed as killing at 1 g/a at 25 degC measured after 3 weeks
[18] = test system: Schoenoplectiella juncoides; test: Herbicidal activity against Schoenoplectiella juncoides assessed as killing at 1 g/a at 25 degC measured after 3 weeks
[19] = Herbicidal activity against annual broad-leaf weeds assessed as killing at 1 g/a at 25 degC measured after 3 weeks
Poa annua [20] = test: Herbicidal activity against Poa annua assessed as killing at 2.5 g/a at 25 degC measured after 2 weeks
[21] = test system: Schoenoplectiella juncoides; test: Herbicidal activity against Schoenoplectiella juncoides assessed as killing at 10 g/a at 25 degC measured after 3 weeks
Echinochloa oryzicola [22] = test: Herbicidal activity against Echinochloa oryzicola assessed as killing at 1 g/a at 25 degC measured after 3 weeks

| SMILES | Activity (Cyperus difformis [5]) | Activity (Echinochloa oryzicola [6]) | Activity (Cyperus difformis [10]) | Activity (Pontederia vaginalis [14]) | Activity [16] | Activity (Pontederia vaginalis [17]) | Activity [18] | Activity [19] | Activity [21] | Activity (Echinochloa oryzicola [22]) | other results |
| --- | --- | --- | --- | --- | --- | --- | --- | --- | --- | --- | --- |
| COCCN(C(=O)CCl)C(=C(C)C)c1ccccc1 | 100% | 100% | 100% | 100% | 100% | 100% | 100% | 100% | 100% | 100% | Activity [1]: 60%; Activity (Setaria viridis [2]): 80%; Activity (Digitaria ciliaris [3]): 100%; Activity (Poa annua [4]): 100%; Activity [7]: 100%; Activity (Digitaria ciliaris [8]): 100%; Activity (Stellaria media [9]): 60%; Activity (Kummerowia striata [11]): 80%; Activity (Kummerowia striata [12]): 80%; Activity (Setaria viridis [13]): 100%; Activity (Stellaria media [15]): 80%; Activity (Poa annua [20]): 100% |
| CCc1cccc(CC)c1N(COC)C(=O)CCl [ALACHLOR] |  |  |  |  |  |  |  |  |  |  | Activity [1]: 80%; Activity (Setaria viridis [2]): 80%; Activity (Digitaria ciliaris [3]): 100%; Activity (Poa annua [4]): 100%; Activity [7]: 100%; Activity (Digitaria ciliaris [8]): 100%; Activity (Stellaria media [9]): 40%; Activity (Kummerowia striata [11]): 80%; Activity (Kummerowia striata [12]): 60%; Activity (Setaria viridis [13]): 100%; Activity (Stellaria media [15]): 80%; Activity (Poa annua [20]): 80% |
| CCOCCN(C(=O)CCl)C(=C(C)C)c1ccccc1 [PETHOXAMID] | 100% | 100% | 100% | 100% | 100% | 100% | 100% |  | 100% | 100% | Activity [1]: 100%; Activity (Setaria viridis [2]): 100%; Activity (Digitaria ciliaris [3]): 100%; Activity (Poa annua [4]): 100%; Activity [7]: 100%; Activity (Digitaria ciliaris [8]): 100%; Activity (Stellaria media [9]): 80%; Activity (Kummerowia striata [11]): 80%; Activity (Kummerowia striata [12]): 80%; Activity (Setaria viridis [13]): 100%; Activity (Stellaria media [15]): 100%; Activity (Poa annua [20]): 80% |
| COCCN(C(=O)CCl)C(=C(C)C)c1cccc(C)c1 | 100% | 100% | 100% | 100% | 100% | 100% | 100% | 100% | 100% | 100% |  |
| CCC=C(c1ccccc1)N(CCOC)C(=O)CCl | 80% | 100% | 100% | 100% | 80% | 0% | 0% | 0% | 100% | 60% |  |
| COCCN(C(=O)CCl)C(=C(C)C)c1ccc(OC)cc1 | 100% | 100% | 100% | 100% | 100% | 80% | 80% | 0% | 100% | 80% |  |
| C=CCOCCN(C(=O)CCl)C(=C(C)C)c1ccccc1 | 100% | 100% | 100% | 100% | 100% | 100% | 100% | 100% | 100% | 100% |  |
| CCc1cccc(C)c1N(C(=O)CCl)C(C)COC (configuration not stated) [METOLACHOR] |  |  |  |  |  |  |  |  |  |  | Activity [1]: 100%; Activity (Setaria viridis [2]): 80%; Activity (Digitaria ciliaris [3]): 100%; Activity (Poa annua [4]): 100%; Activity [7]: 80%; Activity (Digitaria ciliaris [8]): 100%; Activity (Stellaria media [9]): 60%; Activity (Kummerowia striata [11]): 80%; Activity (Kummerowia striata [12]): 100%; Activity (Setaria viridis [13]): 100%; Activity (Stellaria media [15]): 60%; Activity (Poa annua [20]): 80% |
| CCC(CC)=C(c1ccccc1)N(CCOC)C(=O)CCl | 40% | 100% | 100% | 100% | 80% | 0% | 0% | 0% | 100% | 80% |  |
| COC(CN(C(=O)CCl)C(=C(C)C)c1ccccc1)OC | 100% | 100% | 100% | 100% | 100% | 0% | 0% | 80% and 100% | 100% | 40% |  |
| COCCN(C(=O)CCl)C(=C(C)C)c1ccccc1Cl | 100% | 100% | 100% | 100% | 100% | 0% | 80% | 0% | 100% | 80% |  |
| COCCN(C(=O)CCl)C(=C(C)C)c1ccc(Oc2ccccc2)cc1 | 100% | 100% | 100% | 100% | 100% | 100% | 60% | 100% | 100% | 100% |  |
| C#CCOCCN(C(=O)CCl)C(=C(C)C)c1ccccc1 | 100% | 100% | 100% | 100% | 100% | 100% | 80% | 100% | 100% | 100% |  |
| CCC(C)=C(c1ccccc1)N(CCOC)C(=O)CCl | 80% | 100% | 100% | 100% | 100% | 0% | 0% | 40% | 100% | 80% |  |
| COCCN(C(=O)CCl)C(=C(C)C)c1ccc(Br)cc1 | 100% | 100% | 100% | 100% | 100% | 100% | 80% | 80% | 100% | 100% |  |
| COCCN(C(=O)CCl)C(=C(C)C)c1ccc(SC)cc1 | 60% | 100% | 100% | 100% | 100% | 0% | 0% | 100% | 100% | 40% |  |
| COCCN(C(=O)CCl)C(=C(C)C)c1ccccc1C | 80% | 100% | 100% | 80% | 80% | 0% | 0% | 80% | 100% | 80% |  |
| COCCCN(C(=O)CCl)C(=C(C)C)c1ccccc1 | 60% | 100% | 100% | 100% | 100% | 100% | 40% | 0% | 100% | 60% |  |
| COCCN(C(=O)CCl)C(=C(C)C)c1ccc(Br)s1 | 80% | 100% | 100% | 100% | 100% | 60% | 60% | 80% | 100% | 100% |  |
